The source of these data is US20050245399A1, “Pyrazole derivatives as herbicidal compositions containing them” (ISHIHARA SANGYO KAISHA, LTD., priority 2004, published 2005).

In the first test the test system is barnyardgrass (Echinochloa crus-galli L.): ECHCG. Description: Test Example 1 pre-emergence herbicidal activity, ECHCG. The class given is in vivo. The conditions noted are these: Rate 63 g a.i./ha, visually observed 20th to 23rd day after application. The method, boiled down: (§1)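 Percent growth control, rated visually 20–23 d after a pre-emergence spray applied 1 d post-sowing; compound formulated as WP or EC in 500 L/ha water at a predetermined a.i. amount.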
Turning to `COc1c(Cl)cc(F)c(-c2nn(C)c(OC(F)F)c2Cl)c1NC(=O)CCOc1ccccc1` [Compound 1-34], the “Pre-emergence Herbicidal Activity ECHCG (growth controlling degree)” value turned out to be 0%.

A further test concerns crabgrass (Digitaria sanguinalis L.): DIGSA. Description: Test Example 1 pre-emergence herbicidal activity, DIGSA. The class given is in vivo. The conditions noted are these: Rate 63 g a.i./ha, visually observed 20th to 23rd day after application. In outline:
as §1
`COc1c(Cl)cc(F)c(-c2nn(C)c(OC(F)F)c2Cl)c1NC(=O)CCOc1ccccc1` [Compound 1-34]: the “Pre-emergence Herbicidal Activity DIGSP (growth controlling degree)” value is 60%.

Another test relates to green foxtail (Setaria viridis L.): SETVI. Briefly: Test Example 1 pre-emergence herbicidal activity, SETVI. The test is classed as in vivo. The conditions noted are these: Rate 63 g a.i./ha, visually observed 20th to 23rd day after application. The method, boiled down: as §1
Regarding `COc1c(Cl)cc(F)c(-c2nn(C)c(OC(F)F)c2Cl)c1NC(=O)CCOc1ccccc1` [Compound 1-34], the “Pre-emergence Herbicidal Activity SETVI (growth controlling degree)” value is 70%.

For the next test, the system named is redroot pigweed (Amaranthus retroflexus L.): AMARE. Briefly: Test Example 1 pre-emergence herbicidal activity, AMARE. The conditions noted are these: Rate 63 g a.i./ha, visually observed 20th to 23rd day after application. The test is classed as in vivo. The method, boiled down:
as §1
In the case of `COc1c(Cl)cc(F)c(-c2nn(C)c(OC(F)F)c2Cl)c1NC(=O)CCOc1ccccc1` [Compound 1-34], the “Pre-emergence Herbicidal Activity AMARE (growth controlling degree)” value amounted to 100%.

The subject of a further test is prickly sida (Sida spinosa L.): SEDSP. Briefly: Test Example 1 pre-emergence herbicidal activity, SIDSP. The conditions noted are these: Rate 63 g a.i./ha, visually observed 20th to 23rd day after application. The class given is in vivo. In outline:
as §1
`COc1c(Cl)cc(F)c(-c2nn(C)c(OC(F)F)c2Cl)c1NC(=O)CCOc1ccccc1` [Compound 1-34]: the “Pre-emergence Herbicidal Activity SIDSP (growth controlling degree)” value was 70%.

Another test has as its system velvetleaf (Abutilon theophrasti): ABUTH. Briefly: Test Example 1 pre-emergence herbicidal activity, ABUTH. The class given is in vivo. The conditions noted are these: Rate 63 g a.i./ha, visually observed 20th to 23rd day after application. In outline: as §1
Turning to `COc1c(Cl)cc(F)c(-c2nn(C)c(OC(F)F)c2Cl)c1NC(=O)CCOc1ccccc1` [Compound 1-34], the “Pre-emergence Herbicidal Activity ABUTH (growth controlling degree)” value is recorded as 30%.

For another test, the system named is rice (Oryza sativa L.): ORYSA. Description: Test Example 1 pre-emergence herbicidal activity, ORYSA. The test is classed as in vivo. The conditions noted are these: Rate 63 g a.i./ha, visually observed 20th to 23rd day after application. In outline: as §1
Consider `COc1c(Cl)cc(F)c(-c2nn(C)c(OC(F)F)c2Cl)c1NC(=O)CCOc1ccccc1` [Compound 1-34], for which the “Pre-emergence Herbicidal Activity ORYSA (growth controlling degree)” value came out at 0%.

The next test relates to wheat (Triticum aestivum L.): TRZAX. Briefly: Test Example 1 pre-emergence herbicidal activity, TRZAX. The test is classed as in vivo. The conditions noted are these: Rate 63 g a.i./ha, visually observed 20th to 23rd day after application. In outline:
as §1
As for `COc1c(Cl)cc(F)c(-c2nn(C)c(OC(F)F)c2Cl)c1NC(=O)CCOc1ccccc1` [Compound 1-34], the “Pre-emergence Herbicidal Activity TRZAX (growth controlling degree)” value came to 0%.

The next test concerns corn (Zea mays L.): ZEAMX. Briefly: Test Example 1 pre-emergence herbicidal activity, ZEAMX. The class given is in vivo. The conditions noted are these: Rate 63 g a.i./ha, visually observed 20th to 23rd day after application. In outline:
as §1
Consider `COc1c(Cl)cc(F)c(-c2nn(C)c(OC(F)F)c2Cl)c1NC(=O)CCOc1ccccc1` [Compound 1-34], for which the “Pre-emergence Herbicidal Activity ZEAMX (growth controlling degree)” value came to 0%.

The next test has as its system soybean (Glycine max Merr.): GLXMA. Description: Test Example 1 pre-emergence herbicidal activity, GLXMA. The test is classed as in vivo. The conditions noted are these: Rate 63 g a.i./ha, visually observed 20th to 23rd day after application. In outline: as §1
On to `COc1c(Cl)cc(F)c(-c2nn(C)c(OC(F)F)c2Cl)c1NC(=O)CCOc1ccccc1` [Compound 1-34], for which the “Pre-emergence Herbicidal Activity GLXMA (growth controlling degree)” value is 0%.

The subject of another test is barnyardgrass (Echinochloa crus-galli L.), ECHCG. Briefly: Test Example 2 post-emergence (foliage treatment) herbicidal activity, ECHCG. The conditions noted are these: 63 g a.i./ha. The class given is in vivo. The method, boiled down: (§2)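 Each species was evaluated for growth suppression by eye, 0% matching untreated and 100% meaning death, some 20 to 23 days after a single post-emergence foliar treatment applied in 500 L/ha of water carrying 0.1% (v/v) agricultural spreader.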
For `COc1c(Cl)cc(F)c(-c2nn(C)c(OC(F)F)c2Cl)c1NC(=O)CCOc1ccccc1` [Compound 1-34], the “growth controlling degree, ECHCO” value was 70%.

In another test the test system is crabgrass (Digitaria sanguinalis L.), DIGSA. Briefly: Test Example 2 post-emergence (foliage treatment) herbicidal activity, DIGSA. The conditions noted are these: 63 g a.i./ha. The class given is in vivo. In outline:
as §2
As for `COc1c(Cl)cc(F)c(-c2nn(C)c(OC(F)F)c2Cl)c1NC(=O)CCOc1ccccc1` [Compound 1-34], the “growth controlling degree, DIGSP” value came to 70%.

Another test relates to green foxtail (Setaria viridis L.), SETVI. Briefly: Test Example 2 post-emergence (foliage treatment) herbicidal activity, SETVI. The class given is in vivo. The conditions noted are these: 63 g a.i./ha. The method, boiled down:
(§3)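 A small sprayer delivered the diluted WP or EC formulation (500 L/ha water, 0.1% v/v spreader) over emerged seedlings in upland soil pots. Damage relative to untreated plants was graded visually from 0 to 100% three weeks or so later (days 20-23).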
Take `COc1c(Cl)cc(F)c(-c2nn(C)c(OC(F)F)c2Cl)c1NC(=O)CCOc1ccccc1` [Compound 1-34]: the “growth controlling degree, SETVI” value is listed as 100%.

The next test concerns redroot pigweed (Amaranthus retroflexus L.), AMARE. Description: Test Example 2 post-emergence (foliage treatment) herbicidal activity, AMARE. The test is classed as in vivo. The conditions noted are these: 63 g a.i./ha. The method, boiled down:
as §2
For the compound `COc1c(Cl)cc(F)c(-c2nn(C)c(OC(F)F)c2Cl)c1NC(=O)CCOc1ccccc1` [Compound 1-34], the “growth controlling degree, AMARE” value is listed as 100%.

In the next test the test system is prickly sida (Sida spinosa L.), SIDSP. Description: Test Example 2 post-emergence (foliage treatment) herbicidal activity, SIDSP. The class given is in vivo. The conditions noted are these: 63 g a.i./ha. In outline:
as §3
For `COc1c(Cl)cc(F)c(-c2nn(C)c(OC(F)F)c2Cl)c1NC(=O)CCOc1ccccc1` [Compound 1-34], the “growth controlling degree, SIDSP” value was determined as 100%.

The next test has as its system velvetleaf (Abutilon theophrasti), ABUTH. Description: Test Example 2 post-emergence (foliage treatment) herbicidal activity, ABUTH. The class given is in vivo. The conditions noted are these: 63 g a.i./ha. The method, boiled down: as §3
In the case of `COc1c(Cl)cc(F)c(-c2nn(C)c(OC(F)F)c2Cl)c1NC(=O)CCOc1ccccc1` [Compound 1-34], the “growth controlling degree, ABUTH” value worked out at 100%.

A further test deals with rice (Oryza sativa L.), ORYSA. Description: Test Example 2 post-emergence (foliage treatment) herbicidal activity, ORYSA. The test is classed as in vivo. The conditions noted are these: 63 g a.i./ha. The method, boiled down: as §2
As to `COc1c(Cl)cc(F)c(-c2nn(C)c(OC(F)F)c2Cl)c1NC(=O)CCOc1ccccc1` [Compound 1-34], the “growth controlling degree, ORYSA” value came out at 40%.

The test system of another test is wheat (Triticum aestivum L.), TRZAX. Description: Test Example 2 post-emergence (foliage treatment) herbicidal activity, TRZAX. The test is classed as in vivo. The conditions noted are these: 63 g a.i./ha. The method, boiled down: as §3
`COc1c(Cl)cc(F)c(-c2nn(C)c(OC(F)F)c2Cl)c1NC(=O)CCOc1ccccc1` [Compound 1-34]: the “growth controlling degree, TRZAX” value is 30%.

The next test relates to corn (Zea mays L.), ZEAMX. Description: Test Example 2 post-emergence (foliage treatment) herbicidal activity, ZEAMX. The conditions noted are these: 63 g a.i./ha. The test is classed as in vivo. In outline: as §3
Regarding `COc1c(Cl)cc(F)c(-c2nn(C)c(OC(F)F)c2Cl)c1NC(=O)CCOc1ccccc1` [Compound 1-34], the “growth controlling degree, ZEAMX” value worked out at 50%.

A further test concerns soybean (Glycine max Merr.), GLXMA. Briefly: Test Example 2 post-emergence (foliage treatment) herbicidal activity, GLXMA. The class given is in vivo. The conditions noted are these: 63 g a.i./ha. In outline:
as §3
For `COc1c(Cl)cc(F)c(-c2nn(C)c(OC(F)F)c2Cl)c1NC(=O)CCOc1ccccc1` [Compound 1-34], the “growth controlling degree, GLXMA” value was 70%.

Another test has as its system barnyardgrass (Echinochiloa oryzicola: ECHOR). Description: Test Example 3 water application herbicidal activity (paddy), ECHOR. The test is classed as in vivo. The conditions noted are these: 63 g a.i./ha, water application under submerged condition at 0.5 leaf stage, visually observed 14th day after application; 0 = untreated control, 100 = complete kill. In outline: (§4)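 Submerged application in flooded paddy soil (3–4 cm water); weeds treated at 0.5-leaf stage, transplanted rice 4 d after transplanting. Scored visually as % growth control: weeds at 14 d, rice at 21 d.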
For the compound `COc1c(Cl)cc(F)c(-c2nn(C)c(OC(F)F)c2Cl)c1NC(=O)CCOc1ccccc1` [Compound 1-34], the “growth controlling degrees (%) ECHOR” value was 100%.

For the next test, the system named is japanese bulrush (Scirpus juncoides: SCPJO). Description: Test Example 3 water application herbicidal activity (paddy), SCPJO. The class given is in vivo. The conditions noted are these: 63 g a.i./ha, water application under submerged condition at 0.5 leaf stage, visually observed 14th day after application; 0 = untreated control, 100 = complete kill. The method, boiled down: as §4
For `COc1c(Cl)cc(F)c(-c2nn(C)c(OC(F)F)c2Cl)c1NC(=O)CCOc1ccccc1` [Compound 1-34], the “growth controlling degrees (%) SCPJO” value is recorded as 50%.

A further test relates to japanese ribbon wapato (Sagittaria pygmaea: SA GPY). Description: Test Example 3 water application herbicidal activity (paddy), SAGPY. The class given is in vivo. The conditions noted are these: 63 g a.i./ha, water application under submerged condition, tubers planted, visually observed 14th day after application; 0 = untreated control, 100 = complete kill. The method, boiled down:
as §4
With `COc1c(Cl)cc(F)c(-c2nn(C)c(OC(F)F)c2Cl)c1NC(=O)CCOc1ccccc1` [Compound 1-34], the “growth controlling degrees (%) SAGPY” value was determined as 80%.

The subject of the next test is rice (Oryza sativa L.: ORYSA). Description: Test Example 3 water application herbicidal activity (paddy), transplanted rice ORYSA. The test is classed as in vivo. The conditions noted are these: 63 g a.i./ha, water application 4th day after transplantation of 2 leaf stage rice, visually observed 21st day after application; 0 = untreated control, 100 = complete kill. The method, boiled down:
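Flooded paddy-soil pots in greenhouse; ECHOR and SCPJO sown, SAGPY tubers planted a day later, compound applied into 3–4 cm water at weeds' 0.5-leaf stage. Rice transplanted at 2-leaf stage, treated day 4 after transplanting. Visual growth control 0–100% at 14 days (weeds) and 21 days (rice) after application.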
`COc1c(Cl)cc(F)c(-c2nn(C)c(OC(F)F)c2Cl)c1NC(=O)CCOc1ccccc1` [Compound 1-34]: the “growth controlling degrees (%) ORYSA” value is 30%.
